The results in this text go back to patent US11986532B2 (Arvinas Operations, Inc., priority 2021, dated 2024).

The target in the experiment is T1, BCL6 (Homo sapiens, UniProt P41182).
T1 construct: endogenous in cells; host or cells: T47D breast cancer epithelial cells
In words: Immunofluorescence protocol for high content imaging of BCL6 (degradation) in T47D cells, 3 days compound treatment. It counts as cell-based. Conditions: for Dmax: T47D, read-out: Mean Dmax (%)** category; for DC50: read-out: Mean DC50 (nM)* category. In a few lines: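 Read-out: high-content imaging of anti-BCL6 immunofluorescence (Alexa-488 secondary) with CellMask and Hoechst counterstains, 10×, 4 fields/well. Cells had 3 days of compound exposure at 37° C, 5% CO2, 11-point 3-fold series from a final top of 0.1 or 1 μM.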

As for `CNC(=O)COc1cc2cc(Nc3nc(N4CCC(O[C@H]5C[C@H](N6CCC7(CCN(c8ccc9c(c8)CN(C8CCC(=O)NC8=O)C9=O)C7)CC6)C5)CC4)ncc3Cl)ccc2n(C(C)C)c1=O` (stereo partly drawn) [Compound 361, 2-({6-[(5-chloro-2-{4-[(1r,3r)-3-{2-[2-(2,6-dioxopiperidin-3-yl)-1-oxo-2,3-dihydro-1H-isoindol-5-yl]-2,8-diazaspiro [4.5]decan-8-yl}cyclobutoxy]piperidin-1-yl}pyrimidin-4-yl)amino]-2-oxo-1-(propan-2-yl)-1,2-dihydroquinolin-3-yl}oxy)-N-methylacetamide], the greatest degradation seen (Dmax) was in the range of 50 to 70% and the DC50 was below 10 nM.
For `CNC(=O)COc1cc2cc(Nc3nc(N4CCC(O[C@H]5C[C@H](N6CCC7(CCN(c8ccc9c(c8)C(=O)N(C8CCC(=O)NC8=O)C9=O)CC7)C6)C5)CC4)ncc3Cl)ccc2n(C(C)C)c1=O` (stereo partly drawn) [Compound 362, 2-({6-[(5-chloro-2-{4-[(1r,3r)-3-{8-[2-(2,6-dioxopiperidin-3-yl)-1,3-dioxo-2,3-dihydro-1H-isoindol-5-yl]-2,8-diazaspiro [4.5]decan-2-yl}cyclobutoxy]piperidin-1-yl}pyrimidin-4-yl)amino]-2-oxo-1-(propan-2-yl)-1,2-dihydroquinolin-3-yl}oxy)-N-methylacetamide], in that order: at least 70% and 10 to 50 nM.
In the case of `CNC(=O)COc1cc2cc(Nc3nc(N4CCC(O[C@H]5C[C@H](N6CCC7(CCN(c8ccc9c(c8)CN(C8CCC(=O)NC8=O)C9=O)CC7)C6)C5)CC4)ncc3Cl)ccc2n(C(C)C)c1=O` (stereo partly drawn) [Compound 363, 2-({6-[(5-chloro-2-{4-[(1r,3r)-3-{8-[2-(2,6-dioxopiperidin-3-yl)-1-oxo-2,3-dihydro-1H-isoindol-5-yl]-2,8-diazaspiro[4.5]decan-2-yl}cyclobutoxy]piperidin-1-yl}pyrimidin-4-yl)amino]-2-oxo-1-(propan-2-yl)-1,2-dihydroquinolin-3-yl}oxy)-N-methylacetamide], the “Mean Dmax (%)** category” value is on record as “A (A >= 70)” and the DC50 was below 10 nM.
Regarding `CNC(=O)COc1cc2cc(Nc3nc(N4CCC(O[C@H]5C[C@H](N6CC7(CCN(c8ccc9c(c8)C(=O)N(C8CCC(=O)NC8=O)C9=O)CC7)C6)C5)CC4)ncc3Cl)ccc2n(C(C)C)c1=O` (stereo partly drawn) [Compound 365, 2-({6-[(5-chloro-2-{4-[(1r,3r)-3-{7-[2-(2,6-dioxopiperidin-3-yl)-1,3-dioxo-2,3-dihydro-1H-isoindol-5-yl]-2,7-diazaspiro [3.5]nonan-2-yl}cyclobutoxy]piperidin-1-yl}pyrimidin-4-yl)amino]-2-oxo-1-(propan-2-yl)-1,2-dihydroquinolin-3-yl}oxy)-N-methylacetamide], the Dmax was 50 to 70% and the DC50 was below 10 nM.
As for `CNC(=O)COc1cc2cc(Nc3nc(N4CCC(O[C@H]5C[C@H](N6CCC7(CC6)CN(c6ccc8c(c6)CN(C6CCC(=O)NC6=O)C8=O)C7)C5)CC4)ncc3Cl)ccc2n(C(C)C)c1=O` (stereo partly drawn) [Compound 366, 2-({6-[(5-chloro-2-{4-[(1r,3r)-3-{2-[2-(2,6-dioxopiperidin-3-yl)-1-oxo-2,3-dihydro-1H-isoindol-5-yl]-2,7-diazaspiro [3.5]nonan-7-yl}cyclobutoxy]piperidin-1-yl}pyrimidin-4-yl)amino]-2-oxo-1-(propan-2-yl)-1,2-dihydroquinolin-3-yl}oxy)-N-methylacetamide], the Dmax was at least 70% and the DC50 is below 10 nM.
For `CNC(=O)COc1cc2cc(Nc3nc(N4CCC(O[C@H]5C[C@H](N6CCN(c7ccc8c(c7)C(=O)N(C7CCC(=O)NC7=O)C8=O)C(C)(C)C6)C5)CC4)ncc3Cl)ccc2n(C(C)C)c1=O` (stereo partly drawn) [Compound 367, 2-({6-[(5-chloro-2-{4-[(1r,3r)-3-{4-[2-(2,6-dioxopiperidin-3-yl)-1,3-dioxo-2,3-dihydro-1H-isoindol-5-yl]-3,3-dimethylpiperazin-1-yl}cyclobutoxy]piperidin-1-yl}pyrimidin-4-yl)amino]-2-oxo-1-(propan-2-yl)-1,2-dihydroquinolin-3-yl}oxy)-N-methylacetamide], in that order: at least 70% and 10 to 50 nM.
